Laboratory results reported in US11945824B2, “Heterocyclic compounds as anti-viral agents” (priority 2020, dated 2024).

Key:
[1] = system: Human RSV-A (“Long” strain); assay: RSV-A assay (CPE, ATPlite readout in Hep-2 cells); assay type: cell-based; settings: human respiratory syncytial virus, 120 h; Hep-2 cells, MOI 0.1, 5-day incubation, ATPlite; read-out: Human RSV-A (“Long” strain) EC50
Source text: Hep-2 cells, (originally derived from tumors grown in irradiated-cortisonised weanling rats that had been injected with epidermoid carcinoma tissue from a person's larynx, but later found to be indistinguishable from HeLa cells by PCR DNA analysis), were used for the culturing of genotype A, “Long” strain RSV. Flasks were inoculated with RSV and viral stocks were collected once cytopathic effect (CPE) was greater than 90%. Viral stocks in 25% sucrose media were snap frozen using liquid nitrogen to increase viral stability. Viral stock titers were quantified by tissue culture infectious dose 50% (TCID50) using 8,000 cells per well and 3-fold viral dilutions across a 96-well plate, cultured for 4 days. Viral stock titers were also quantified by a plaque forming unit assay, as described elsewhere.
Following extensive parameter testing, the final assay is run as follows: Hep-2 cells are seeded into the inner 60 wells of a 96-well plate at 8,000 cells per well in a volume of 50 μL using Growth Media (DMEM without phenol red, 1% L-Glut, 1% Penn/Strep, 1% nonessential amino acids, 10% heat-inactivated FBS). 2-fold serial dilutions of control and test compounds are added to the wells in duplicate in a total volume of 25 μL. Viral stock is then added to the wells at a multiplicity of infection (MOI) of 0.1 in a volume of 25 μL, bringing the total volume of each well to 100 μL. The MOI is calculated using the PFU/mL, or TCID50 if unavailable. Each 96-well plate has a control column of 6 wells with cells and virus but no compound (negative control, max CPE), a column with cells but no compound or virus (positive control, minimum CPE), and a column with no cells or virus or compound (background plate/reagent control). The control wells with cells but no virus are given an additional 25 μL of growth media containing an equal quantity of sucrose as those wells receiving the viral stock in order to keep consistent in media and volume conditions. The outer wells of the plate are filled with 125 μL of moat media (DMEM, 1% Penn/Strep) to act as a thermal and evaporative moat around the test wells. Following a 5-day incubation period, the plates are read using ATPlite (50 uL added per well), which quantifies the amount of ATP (a measure of cell health) present in each well. Assay plates are read using the Envision luminometer. […] EC50 ranges are as follows: A<0.2 μM; B≥0.2 μM.

[2] = system: rHMPV-GFP (recombinant HMPV CAN97-83, MPV-GFP1); assay: HMPV antiviral assay (eGFP fluorescence in Vero E6 cells); assay type: cell-based; settings: human metapneumovirus, Vero C1008, 120 h, read-out: rHMPV-GFP EC50
Protocol: Method for HMPV Antiviral Assay
HMPV antiviral activity was evaluated using a recombinant version of HMPV CAN97-83 engineered to contain the coding sequence for enhanced green fluorescence protein (eGFP) in the 3′ end of the virus genome (MPV-GFP1, ViraTree). Vero E6 cells (ATCC #CCL-7) were seeded at a density of 12,000 cells/100 μL/well into 96-well cell plates (VENDOR) one day prior to the assay. On the day of screening, the cell culture medium was aspirated from the wells and cells were washed twice with serum-free Eagle's Modified Essential Medium (EMEM, ATCC #) containing 1% penicillin-streptomycin (Invitrogen) (SF-EMEM). Cell washes were performed by dispensing 100 μL SF-EMEM per well and immediately aspirating the wash medium from the well. Following the second wash step, serum-free OptiMEM (Invitrogen, Cat No.) (SF-OptiMEM) containing 0.5 μg/mL TPCK-Trypsin (VENDOR) and 1% penicillin-streptomycin was added to the cells at 50 μL/well. Compounds were added into the 96-well plates using a JANUS automated liquid handling system (VENDOR). Compounds were initially diluted 1:50 into an intermediate 96-well plate containing SF-OptiMEM prior to transfer to the assay plate (25 μL/well). Each of the test compounds were tested in duplicate wells at final concentrations starting from 8 μM or 2 μM using ½ stepwise dilutions for a total of 8 points. Virus infection was performed by preparing a working stock of MPV-GFP1 at a multiplicity of infection (MOI) equal to 0.05/25 μL and aliquoting 25 μL of virus inoculum to the compound and positive control wells. SF-OptiMEM was added (25 μL/well) to the appropriate wells to serve as a virus-free negative control for the assay. The final DMSO concentration of all wells is 0.5%. Plates were incubated at 32° C., 5% CO2 for 5 days. After 5 days incubation, eGFP fluorescence intensity was measured at […] using a Spectramax i3X plate reader (VENDOR).
Percent viral inhibition was calculated using the following equation: y=[[…](XQ/XP)]×100 Where XQ is the fluorescence intensity measured in a well containing recombinant MPV-GFP1-infected, compound-treated cells and XP is the average fluorescence intensity measured in the wells containing untreated cells infected with recombinant virus. EC50 values were then calculated by non-linear regression using a four-parameter curve logistic equation. The curve fit model employed was XLFit Dose Response One Site Model 200: y=(A+(B/(1+((x/C)^D)))) Where A is the minimum y value, B is the maximum y value, C is the log EC50 value, and D is the slope factor. The EC50 for each compound is listed in Table 2 and EC50 ranges are as follows: A<0.2 μM; B≥0.2 μM.

Compound: COc1cc(C(=O)NC[C@](O)(c2cc3c(c(-c4ccc(F)cc4)n2)OC[C@]3(C)n2cnnc2)C2CC2)cc2cccnc12 [Example 16, N-((S)-2-cyclopropyl-2-((R)-7-(4-fluorophenyl)-3-methyl-3-(4H-1,2,4-triazol-4-yl)-2,3-dihydrofuro[2,3-c]pyridin-5-yl)-2-hydroxyethyl)-8-methoxyquinoline-6-carboxamide]
- EC50 [1]: < 200 nM
- EC50 [2]: > 200 nM

Compound: COc1cc(C(=O)NC[C@](O)(c2cc3c(c(-c4ccc(F)cc4)n2)OC[C@]3(C)n2ccnn2)C2CC2)ccc1OC1CC1 [Example 17, 4-cyclopropoxy-N-((S)-2-cyclopropyl-2-((R)-7-(4-fluorophenyl)-3-methyl-3-(1H-1,2,3-triazol-1-yl)-2,3-dihydrofuro[2,3-c]pyridin-5-yl)-2-hydroxyethyl)-3-methoxybenzamide]
- EC50 [1]: < 200 nM
- EC50 [2]: < 200 nM

Compound: COc1cc(C(=O)NC[C@](O)(c2cc3c(c(-c4ccc(F)cc4)n2)OC[C@]3(C)c2cnn[nH]2)C(F)(F)F)cc2cccnc12 [Example 18, 8-methoxy-N-((S)-3,3,3-trifluoro-2-((S)-7-(4-fluorophenyl)-3-methyl-3-(1H-1,2,3-triazol-5-yl)-2,3-dihydrofuro[2,3-c]pyridin-5-yl)-2-hydroxypropyl)quinoline-6-carboxamide]
- EC50 [1]: < 200 nM
- EC50 [2]: > 200 nM

Compound: COc1cc(C(=O)NC[C@](O)(c2cc3c(c(-c4ccc(F)cc4)n2)OC[C@]3(C)c2ncc[nH]2)C(F)(F)F)cc2cccnc12 [Example 20, 8-methoxy-N-((S)-3,3,3-trifluoro-2-((S)-7-(4-fluorophenyl)-3-(1H-imidazol-2-yl)-3-methyl-2,3-dihydrofuro[2,3-c]pyridin-5-yl)-2-hydroxypropyl)quinoline-6-carboxamide]
- EC50 [1]: < 200 nM
- EC50 [2]: > 200 nM

Compound: C[C@]1(c2nc3ccccc3[nH]2)COc2c1cc([C@@](O)(CNC(=O)c1cc(OC3CC3)c3ncccc3c1)C(F)(F)F)nc2-c1ccc(F)cc1 [Example 21, N-((S)-2-((S)-3-(1H-benzo[d]imidazol-2-yl)-7-(4-fluorophenyl)-3-methyl-2,3-dihydrofuro[2,3-c]pyridin-5-yl)-3,3,3-trifluoro-2-hydroxypropyl)-8-cyclopropoxyquinoline-6-carboxamide]
- EC50 [1]: < 200 nM
- EC50 [2]: > 200 nM

Compound: C[C@]1(c2cc[nH]n2)COc2c1cc([C@@](O)(CNC(=O)c1cc(OC3CC3)c3ncccc3c1)C(F)(F)F)nc2-c1ccc(F)cc1 [Example 22, 8-cyclopropoxy-N-((S)-3,3,3-trifluoro-2-((S)-7-(4-fluorophenyl)-3-methyl-3-(1H-pyrazol-3-yl)-2,3-dihydrofuro[2,3-c]pyridin-5-yl)-2-hydroxypropyl)quinoline-6-carboxamide]
- EC50 [1]: < 200 nM
- EC50 [2]: > 200 nM

Compound: COc1cc(C(=O)NC[C@](O)(c2cc3c(c(-c4ccc(F)cc4)n2)OC[C@]3(C)Cc2ncc[nH]2)C(F)(F)F)cc2cccnc12 [Example 23, N-((S)-2-((R)-3-((1H-imidazol-2-yl)methyl)-7-(4-fluorophenyl)-3-methyl-2,3-dihydrofuro[2,3-c]pyridin-5-yl)-3,3,3-trifluoro-2-hydroxypropyl)-8-methoxyquinoline-6-carboxamide]
- EC50 [1]: < 200 nM
- EC50 [2]: < 200 nM
